{
  "source": "patent US20130065226A1",
  "about": "“METHOD OF DETERMINING DOSE AND ADMINISTRATION OF STATIN” (TOHOKU UNIVERSITY, priority 2011, published 2013)",
  "key": {"SmgGDS [1]": {"system": "SmgGDS", "test": "SmgGDS expression in HUVEC after 24 h drug treatment (western blot)", "type": "cell-based, human", "details": "for inhibition of the statin-induced increase in SmgGDS expression level: FPP or GGPP 10 μM co-treated with atorvastatin or pitavastatin, 24 h"}, "[2]": {"test": "Body weight, blood pressure and plasma lipid profiles in AngII-infused mice", "type": "in vivo", "details": "2 weeks, ATOR 10 mpk, PRA 50 mpk; for Systolic blood pressure: mean ± s.e.m.; for HDL cholesterol / LDL-cholesterol / Total cholesterol / Triglyceride: plasma", "method": "An AngII-induced cardiovascular hypertrophy model in mice was produced according to Yagi et al.'s literature (Yagi, S. et al., Circ. Res. 102, 68-76 (2008)). Statins were administered to mice by gavage every day for 2 weeks. After 2 weeks of sustained AngII administration by means of osmotic pump, the present inventors observed the left ventricular function and measured the weight of the heart of each mouse by means of an ultrasound imaging system. […] After a 2 weeks washout period, the subjects were switched to take an alternative medicine for additional 2 weeks.\nThe present inventors conducted all mouse experiments in accordance with experimental protocols that were approved by the Animal Care and Use Committee of the Tohoku University Graduate School of Medicine. The present inventors used an AngII-induced cardiovascular hypertrophy model (see Yagi, S . et al . , Circ. Res. 102. 68-76 (2008)) to assess the effect of SmgGDS deficiency on the pleiotropic effects of low-dose statins. The present inventors infused 2.0 mg kg^−1 day^−1 or saline for 2 weeks in 10-week-old male SmgGDS^+/+ littermate control mice and SmgGDS^+/− mice. The inventors dissolved AngII in sterile saline and infused it via osmotic mini-pumps (Alzet model 2002, Alze Corp.). The inventors anesthetized the animals with isofluorane. Then, the inventors prepared subcutaneous pockets in the isofluorane-anesthetized mice and placed the pumps into the subcutaneous pockets through a small incision in the back that was closed by suturing. Either statin or vehicle was administered to both the AngII-infused and saline-infused mouse by gavage every day for 2 weeks . All incision sites rapidly healed without any infection. Systolic blood pressure was measured by using a non-invasive tail-cuff system (MK-2000, Muromachi) 2 weeks after the pump implantation. Plasma lipids (triglycerides, total cholesterol, LDL-cholesterol and HDL-cholesterol) were analyzed with the high-performance liquid chromatography system of Skylight Biotech. Echocardiographic analysis was performed by using an ultrasound imaging system (Vevo 2100, VisualSonic Inc.). The mice were shaved and M-mode images of the left ventricle were recorded while the heart rate was kept at about 500 bpm."}, "[3]": {"test": "Plasma concentration of statins in mice", "type": "in vivo", "details": "male, mouse, oral, 24 hours after last of 2-week gavage, atorvastatin 10 mg/kg/day, pravastatin 50 mg/kg/day, read-out: Plasma concentration of statin", "method": "Furthermore, the present inventors administrated each statin by gavage for 2 weeks from the start of AngII administration ([…], 10 mg/kg/day or pravastatin, 50 mg/kg/day) to the each group of mouse. The present inventors measured plasma concentration of statins 24 hours after the last administration (Table 3)."}, "[4]": {"test": "Human study: plasma lipid profiles, glucose, insulin and HOMA-IR", "type": "in vivo", "details": "healthy volunteers", "description": "(§1) The exclusion criteria included abnormal liver or kidney dysfunction before and during the statin administration and treatment."}, "SmgGDS [5]": {"system": "SmgGDS", "test": "Human study: SmgGDS expression in circulating leukocytes (western blot)", "type": "in vivo", "details": "healthy volunteers, 20 mg, 2 weeks, vs before administration", "description": "as §1"}, "[6]": {"details": "20 mg day^−1, after 2 weeks vs baseline"}, "[7]": {"details": "fasting, 20 mg day^−1 oral, 2 weeks"}},
  "note": "Read-outs that look alike come from different tables or passages of the source.",
  "data": [
    {"smiles": "O=c1[nH]ccc2c(S(=O)(=O)N3CCCNCC3)cccc12", "note": "[HF, hydroxyfasudil]", "values": [
      {"measurement": "SmgGDS expression level in HUVEC", "setting": "SmgGDS [1]; 24 h treatment, atorvastatin 10 and 30 μM, pitavastatin 1 and 10 μM", "result": "did not increase the SmgGDS expression level"}
    ]},
    {"smiles": "CC(C)=CCC/C(C)=C/CC/C(C)=C/COP(=O)(O)OP(=O)(O)O", "note": "[FPP, farnesyl pyrophosphate]", "values": [
      {"measurement": "inhibition of the statin-induced increase in SmgGDS expression level", "setting": "SmgGDS [1]", "result": "neither FPP nor GGPP inhibited the increase in SmgGDS expression level by statins"}
    ]},
    {"smiles": "CC(C)=CCC/C(C)=C/CC/C(C)=C/CC/C(C)=C/COP(=O)(O)OP(=O)(O)O", "note": "[GGPP, geranylgeranyl pyrophosphate]", "values": [
      {"measurement": "inhibition of the statin-induced increase in SmgGDS expression level", "setting": "SmgGDS [1]", "result": "neither FPP nor GGPP inhibited the increase in SmgGDS expression level by statins"}
    ]},
    {"smiles": "CC[C@H](C)C(=O)O[C@H]1C[C@H](O)C=C2C=C[C@H](C)[C@H](CC[C@@H](O)C[C@@H](O)CC(=O)O)[C@H]21", "note": "[pravastatin]", "values": [
      {"measurement": "Systolic blood pressure", "setting": "[2]; AngII-infused SmgGDS+/+ mice", "result": "141.0 ± 7.3", "unit": "mmHg"},
      {"measurement": "Systolic blood pressure", "setting": "[2]; AngII-infused SmgGDS+/− mice", "result": "146.7 ± 6.6", "unit": "mmHg"},
      {"measurement": "HDL cholesterol", "setting": "[2]; AngII-infused SmgGDS+/+ mice", "result": "88.0 ± 4.5", "unit": "mg/dL"},
      {"measurement": "LDL-cholesterol", "setting": "[2]; AngII-infused SmgGDS+/+ mice", "result": "16.1 ± 2.3", "unit": "mg/dL"},
      {"measurement": "Total cholesterol", "setting": "[2]; AngII-infused SmgGDS+/+ mice", "result": "111.2 ± 6.8", "unit": "mg/dL"},
      {"measurement": "Triglyceride", "setting": "[2]; AngII-infused SmgGDS+/+ mice", "result": "47.3 ± 10.9", "unit": "mg/dL"},
      {"measurement": "HDL cholesterol", "setting": "[2]; AngII-infused SmgGDS+/− mice", "result": "94.0 ± 4.1", "unit": "mg/dL"},
      {"measurement": "LDL-cholesterol", "setting": "[2]; AngII-infused SmgGDS+/− mice", "result": "16.1 ± 1.6", "unit": "mg/dL"},
      {"measurement": "Total cholesterol", "setting": "[2]; AngII-infused SmgGDS+/− mice", "result": "116.7 ± 5.7", "unit": "mg/dL"},
      {"measurement": "Triglyceride", "setting": "[2]; AngII-infused SmgGDS+/− mice", "result": "56.6 ± 7.3", "unit": "mg/dL"},
      {"measurement": "concentration at 24 h", "setting": "[3]; AngII-infused SmgGDS+/+ mice", "result": "0.43 ± 0.08", "unit": "ng/mL"},
      {"measurement": "concentration at 24 h", "setting": "[3]; AngII-infused SmgGDS+/− mice", "result": "0.64 ± 0.24", "unit": "ng/mL"},
      {"measurement": "HDL-cholesterol, Change (%)", "setting": "[4]; [6]", "result": 5, "unit": "%"},
      {"measurement": "LDL-cholesterol, Change (%)", "setting": "[4]; [6]", "result": "−24", "unit": "%"},
      {"measurement": "MDA-LDL, Change (%)", "setting": "[4]; [6]", "result": "−25", "unit": "%"},
      {"measurement": "RLP cholesterol, Change (%)", "setting": "[4]; [6]", "result": "−22", "unit": "%"},
      {"measurement": "Total cholesterol, Change (%)", "setting": "[4]; [6]", "result": "−14", "unit": "%"},
      {"measurement": "Triglyceride, Change (%)", "setting": "[4]; [6]", "result": "−16", "unit": "%"},
      {"measurement": "HDL-cholesterol, After 2 weeks", "setting": "[4]; [7]", "result": "61 ± 2.8", "unit": "mg/dL"},
      {"measurement": "LDL-cholesterol, After 2 weeks", "setting": "[4]; [7]", "result": "88 ± 4.0", "unit": "mg/dL"},
      {"measurement": "MDA-LDL, After 2 weeks", "setting": "[4]; [7]", "result": "85 ± 6.7", "unit": "U l^−1"},
      {"measurement": "RLP cholesterol, After 2 weeks", "setting": "[4]; [7]", "result": "3.2 ± 0.3", "unit": "mg/dL"},
      {"measurement": "Triglyceride, After 2 weeks", "setting": "[4]; [7]", "result": "87 ± 9.1", "unit": "mg/dL"},
      {"measurement": "Total cholesterol, After 2 weeks", "setting": "[4]; fasting, 20 mg day^−1 oral, 2 weeks, mean ± s.e.m., n = 20", "result": "165 ± 4.5", "unit": "mg/dL"},
      {"measurement": "increase of SmgGDS in leukocytes, average of the 20 volunteers", "setting": "SmgGDS [5]", "result": "about 1.4 times"}
    ]}
  ]
}
